Results reported in US20260130933A1, “PHARMACEUTICAL COMPOSITION FOR PREVENTION OR TREATMENT OF NEPHROPATHY AND/OR DIABETES MELLITUS, COMPRISING ENAVOGLIFLOZIN” (DAEWOONG PHARMACEUTICAL CO., LTD., priority 2022, published 2026).

Assay: Example 2: phase 3 trial, enavogliflozin 0.3 mg vs dapagliflozin 10 mg once a day for 24 weeks added to metformin in patients with type 2 diabetes (same efficacy, exploratory and safety endpoints)
Format: in vivo, human
Conditions: for HDL-C change from baseline, ANCOVA LS mean (SE) / HDL-C change from baseline, Mean (SD) / HDL-C change from baseline, Median / HDL-C, Mean (SD) / HDL-C, Median / LDL-C change from baseline, ANCOVA LS mean (SE) / LDL-C change from baseline, Mean (SD) / LDL-C change from baseline, Median / LDL-C, Mean (SD) / LDL-C, Median / Triglycerides change from baseline, ANCOVA LS mean (SE) / Triglycerides change from baseline, Mean (SD) / Triglycerides change from baseline, Median / Triglycerides, Mean (SD) / Triglycerides, Median: mPPS1; for Diastolic blood pressure change from baseline, ANCOVA LS mean (SE) / Diastolic blood pressure change from baseline, Mean (SD) / Diastolic blood pressure change from baseline, Median / Diastolic blood pressure, Mean (SD) / Diastolic blood pressure, Median / Systolic blood pressure change from baseline, ANCOVA LS mean (SE) / Systolic blood pressure change from baseline, Mean (SD) / Systolic blood pressure change from baseline, Median / Systolic blood pressure, Mean (SD) / Systolic blood pressure, Median: mPPS2
Method: Subjects who met the inclusion/exclusion criteria were administered a placebo of the clinical trial drug under single-blind (subject blinding) conditions during a 2-week run-in period while continuing to receive metformin. […] The randomized subjects were administered two tablets of the clinical trial drug for each administration group once a day, and then visited the institution at weeks 6, 12, 18, and 24 during the 24-week administration period to conduct efficacy and safety evaluations.
• 1. Change in HbA1c at week 24 after administration of clinical trial drug compared to Visit 2 (randomization)
• 1. Change in HbA1c at each time point of weeks 6, 12, and 18 after administration of clinical trial drug compared to Visit 2 (randomization) • 2. Change in FPG at each time point of weeks 6, 12, 18, and 24 after administration of clinical trial drug compared to Visit 2 (randomization) • 3. Proportion of subjects achieving HbA1c<7% at each time point of weeks 6, 12, 18, and 24 after administration of clinical trial drug • 4. Proportion of subjects achieving HbA1c<6.5% at each time point of weeks 6, 12, 18, and 24 after administration of clinical trial drug • 5. Proportion of subjects achieving therapeutic response (HbA1c change (HbA1c at Visit 2-HbA1c at each evaluation time point)>0.5% or HbA1c<7% at each evaluation time point compared to Visit 2 (randomization)) at each time point of weeks 6, 12, 18 and 24 after administration of clinical trial drug
• 1. Change in fasting c-peptide at each time point of weeks 6, 12, 18, and 24 after administration of clinical trial drug compared to Visit 2 (randomization) • 2. Change in body weight at each time point of weeks 6, 12, 18, and 24 after administration of clinical trial drug compared to Visit 2 (randomization) • 3. Change in fasting lipid concentration (total cholesterol, LDL-C, HDL-C, and triglycerides) at each time point of weeks 6, 12, 18, and 24 after administration of clinical trial drug compared to Visit 2 (randomization) • 4. Changes in systolic or diastolic blood pressure at each time point of weeks 6, 12, 18, and 24 after administration of clinical trial drug compared to Visit 2 (randomization) • 5. Changes in β-cell function and insulin resistance measured by HOMA-β and HOMA-IR at each time point of weeks 6, 12, 18, and 24 after administration of clinical trial drug compared to Visit 2 (randomization) • 6. Changes in renal function-related indicators (UACR, UGCR) measured by UACR at each time point of weeks 6, 12, 18, and 24 after administration of clinical trial drug compared to Visit 2 (randomization) • 7. Changes in obesity-related indicators (adiponectin, leptin) at each time point of weeks 6, 12, 18, and 24 after administration of clinical trial drug compared to Visit 2 (randomization)

CCOc1ccc(Cc2cc([C@@H]3O[C@H](CO)[C@@H](O)[C@H](O)[C@H]3O)ccc2Cl)cc1 [Dapagliflozin, reference compound]
Leptin change from baseline, ANCOVA LS mean (SE) (Week 12, PPS): -2.70 ng/mL
Leptin change from baseline, Mean (SD) (Week 12, PPS): -2.70 ng/mL
Leptin change from baseline, Median (Week 12, PPS): -1.94 ng/mL
Leptin, Mean (SD) (Week 12, PPS): 9.07 ng/mL
Leptin, Median (Week 12, PPS): 6.05 ng/mL
UACR change from baseline, ANCOVA LS mean (SE) (Week 12, PPS): -3.38 g/kg
UACR change from baseline, Mean (SD) (Week 12, PPS): -8380 mg/kg
UACR change from baseline, Median (Week 12, PPS): -1.80 g/kg
UACR, Mean (SD) (Week 12, PPS): 49420 mg/kg
UACR, Median (Week 12, PPS): 11.95 g/kg
UGCR change from baseline, ANCOVA LS mean (SE) (Week 12, PPS): 45.14 mg/mg
UGCR change from baseline, Mean (SD) (Week 12, PPS): 43.59 mg/mg
UGCR change from baseline, Median (Week 12, PPS): 40.62 mg/mg
UGCR, Mean (SD) (Week 12, PPS): 45.57 mg/mg
UGCR, Median (Week 12, PPS): 40.89 mg/mg
HDL-C change from baseline, ANCOVA LS mean (SE) (Week 12): 2.25(0.62) mg/dL
HDL-C change from baseline, Mean (SD) (Week 12): 2.65(5.61) mg/dL
HDL-C change from baseline, Median (Week 12): 2.00 mg/dL
HDL-C, Mean (SD) (Week 12): 49.29(9.21) mg/dL
HDL-C, Median (Week 12): 49.00 mg/dL
LDL-C change from baseline, ANCOVA LS mean (SE) (Week 12): 0.56(1.73) mg/dL
LDL-C change from baseline, Mean (SD) (Week 12): 1.33(16.02) mg/dL
LDL-C change from baseline, Median (Week 12): 2.00 mg/dL
LDL-C, Mean (SD) (Week 12): 77.54(25.39) mg/dL
LDL-C, Median (Week 12): 77.00 mg/dL
Triglycerides change from baseline, ANCOVA LS mean (SE) (Week 12): −10.10(4.92) mg/dL
Triglycerides change from baseline, Mean (SD) (Week 12): −14.35(70.12) mg/dL
Triglycerides change from baseline, Median (Week 12): -6.00 mg/dL
Triglycerides, Mean (SD) (Week 12): 119.06(50.67) mg/dL
Triglycerides, Median (Week 12): 104.00 mg/dL
Diastolic blood pressure change from baseline, ANCOVA LS mean (SE) (Week 12): −4.35 mmHg
Diastolic blood pressure change from baseline, Mean (SD) (Week 12): −4.06 mmHg
Diastolic blood pressure change from baseline, Median (Week 12): −3.00 mmHg
Diastolic blood pressure, Mean (SD) (Week 12): 71.86 mmHg
Diastolic blood pressure, Median (Week 12): 72.00 mmHg
Systolic blood pressure change from baseline, ANCOVA LS mean (SE) (Week 12): −6.12(1.07) mmHg
Systolic blood pressure change from baseline, Mean (SD) (Week 12): −5.86(11.46) mmHg
Systolic blood pressure change from baseline, Median (Week 12): −6.00 mmHg
Systolic blood pressure, Mean (SD) (Week 12): 121.46(12.64) mmHg
Systolic blood pressure, Median (Week 12): 123.00 mmHg
Adiponectin change from baseline, ANCOVA LS mean (SE) (Week 18, PPS): 1.29 µg/mL
Adiponectin change from baseline, Mean (SD) (Week 18, PPS): 1.28 µg/mL
Adiponectin change from baseline, Median (Week 18, PPS): 0.73 ng/mL
Adiponectin, Mean (SD) (Week 18, PPS): 7.98 µg/mL
Adiponectin, Median (Week 18, PPS): 7.08 µg/mL
HOMA-IR change from baseline, ANCOVA LS mean (SE) (Week 18, PPS): −1.47
HOMA-IR change from baseline, Mean (SD) (Week 18, PPS): −1.61
HOMA-IR change from baseline, Median (Week 18, PPS): −1.07
HOMA-IR, Mean (SD) (Week 18, PPS): 2.28
HOMA-IR, Median (Week 18, PPS): 2.07
HOMA-β change from baseline, ANCOVA LS mean (SE) (Week 18, PPS): 13.49
HOMA-β change from baseline, Mean (SD) (Week 18, PPS): 13.46
HOMA-β change from baseline, Median (Week 18, PPS): 9.80
HOMA-β, Mean (SD) (Week 18, PPS): 58.55
HOMA-β, Median (Week 18, PPS): 51.80
Leptin change from baseline, ANCOVA LS mean (SE) (Week 18, PPS): -1.23 ng/mL
Leptin change from baseline, Mean (SD) (Week 18, PPS): -1.20 ng/mL
Leptin change from baseline, Median (Week 18, PPS): -1.37 ng/mL
Leptin, Mean (SD) (Week 18, PPS): 10.72 ng/mL
Leptin, Median (Week 18, PPS): 6.16 ng/mL
UACR change from baseline, ANCOVA LS mean (SE) (Week 18, PPS): -12.95 g/kg
UACR change from baseline, Mean (SD) (Week 18, PPS): -20540 mg/kg
UACR change from baseline, Median (Week 18, PPS): -1.75 g/kg
UACR, Mean (SD) (Week 18, PPS): 37260 mg/kg
UACR, Median (Week 18, PPS): 11.60 g/kg
UGCR change from baseline, ANCOVA LS mean (SE) (Week 18, PPS): 42.72 mg/mg
UGCR change from baseline, Mean (SD) (Week 18, PPS): 41.06 mg/mg
UGCR change from baseline, Median (Week 18, PPS): 40.72 mg/mg
UGCR, Mean (SD) (Week 18, PPS): 43.00 mg/mg
UGCR, Median (Week 18, PPS): 40.86 mg/mg
HDL-C change from baseline, ANCOVA LS mean (SE) (Week 18): 3.08(0.67) mg/dL
HDL-C change from baseline, Mean (SD) (Week 18): 3.17(5.82) mg/dL
HDL-C change from baseline, Median (Week 18): 2.00 mg/dL
HDL-C, Mean (SD) (Week 18): 49.93(9.16) mg/dL
HDL-C, Median (Week 18): 49.00 mg/dL
LDL-C change from baseline, ANCOVA LS mean (SE) (Week 18): 2.58(1.89) mg/dL
LDL-C change from baseline, Mean (SD) (Week 18): 3.27(20.01) mg/dL
LDL-C change from baseline, Median (Week 18): 3.00 mg/dL
LDL-C, Mean (SD) (Week 18): 79.71(26.69) mg/dL
LDL-C, Median (Week 18): 80.00 mg/dL
Triglycerides change from baseline, ANCOVA LS mean (SE) (Week 18): 1.88(6.04) mg/dL
Triglycerides change from baseline, Mean (SD) (Week 18): −4.10(62.62) mg/dL
Triglycerides change from baseline, Median (Week 18): 1.00 mg/dL
Triglycerides, Mean (SD) (Week 18): 130.88(70.92) mg/dL
Triglycerides, Median (Week 18): 110.00 mg/dL
Diastolic blood pressure change from baseline, ANCOVA LS mean (SE) (Week 18): −4.10 mmHg
Diastolic blood pressure change from baseline, Mean (SD) (Week 18): −3.94 mmHg
Diastolic blood pressure change from baseline, Median (Week 18): −2.50 mmHg
Diastolic blood pressure, Mean (SD) (Week 18): 72.08 mmHg
Diastolic blood pressure, Median (Week 18): 71.00 mmHg
Systolic blood pressure change from baseline, ANCOVA LS mean (SE) (Week 18): −5.97(1.15) mmHg
Systolic blood pressure change from baseline, Mean (SD) (Week 18): −5.43(12.97) mmHg
Systolic blood pressure change from baseline, Median (Week 18): −5.00 mmHg
Systolic blood pressure, Mean (SD) (Week 18): 122.27(12.91) mmHg
Systolic blood pressure, Median (Week 18): 122.00 mmHg
Adiponectin change from baseline, ANCOVA LS mean (SE) (Week 24, PPS): 1.69 µg/mL
Adiponectin change from baseline, Mean (SD) (Week 24, PPS): 1.72 µg/mL
Adiponectin change from baseline, Median (Week 24, PPS): 1.06 ng/mL
Adiponectin, Mean (SD) (Week 24, PPS): 8.35 µg/mL
Adiponectin, Median (Week 24, PPS): 7.19 µg/mL
HOMA-IR change from baseline, ANCOVA LS mean (SE) (Week 24, PPS): −1.31
HOMA-IR change from baseline, Mean (SD) (Week 24, PPS): −1.47
HOMA-IR change from baseline, Median (Week 24, PPS): −1.17
HOMA-IR, Mean (SD) (Week 24, PPS): 2.39
